In patent publication US20150239889A1, “PYRAZOLOPYRIMIDINE COMPOUND” (MITSUBISHI TANABE PHARMA CORPORATION, priority 2012, published 2015):
pIC50: −log10 of the molar value. Where a name gives a salt, the structure may show the parent alone.

How the values were obtained:
human HIF-PHD2 = target: T1, human HIF-PHD2 (Homo sapiens, UniProt Q9GZT9); assay: HIF-PHD inhibition assay (fluorescence polarization), human HIF-PHD2; type: biochemical; details: 2-oxoglutaric acid 3.33 μmol/L
T1 construct: purchased CrystalGenomics Ltd
T1 sequence (Q9GZT9 2-426 limits assumed): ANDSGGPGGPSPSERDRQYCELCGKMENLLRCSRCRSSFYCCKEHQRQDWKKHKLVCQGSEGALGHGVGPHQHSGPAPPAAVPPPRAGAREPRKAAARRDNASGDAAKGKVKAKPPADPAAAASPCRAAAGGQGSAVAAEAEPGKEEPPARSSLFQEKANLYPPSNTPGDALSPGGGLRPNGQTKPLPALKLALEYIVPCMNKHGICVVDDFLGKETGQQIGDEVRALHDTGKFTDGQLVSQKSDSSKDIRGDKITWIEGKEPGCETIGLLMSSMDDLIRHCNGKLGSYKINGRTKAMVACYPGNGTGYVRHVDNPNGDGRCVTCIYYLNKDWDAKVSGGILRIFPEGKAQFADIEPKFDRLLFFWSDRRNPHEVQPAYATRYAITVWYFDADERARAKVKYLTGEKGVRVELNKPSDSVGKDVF
Description: (§1) The activity of the test compound to inhibit human HIF-PHD2 and human HIF-PHD3 was determined.
(§2) The value of enzyme activity was calculated by subtracting the value of fluorescence polarization before addition of the enzyme from the value of fluorescence polarization after addition of enzyme (mP value).
(§3) FAM: 5′-fluoresceinamide ACA: aminocaproic acid

human HIF-PHD3 = target: T2, human HIF-PHD3 (Homo sapiens, UniProt Q9H6Z9); assay: HIF-PHD inhibition assay (fluorescence polarization), human HIF-PHD3; type: biochemical; details: 2-oxoglutaric acid 166 μmol/L
T2 construct: purchased CrystalGenomics Ltd
T2 sequence (Q9H6Z9 whole entry): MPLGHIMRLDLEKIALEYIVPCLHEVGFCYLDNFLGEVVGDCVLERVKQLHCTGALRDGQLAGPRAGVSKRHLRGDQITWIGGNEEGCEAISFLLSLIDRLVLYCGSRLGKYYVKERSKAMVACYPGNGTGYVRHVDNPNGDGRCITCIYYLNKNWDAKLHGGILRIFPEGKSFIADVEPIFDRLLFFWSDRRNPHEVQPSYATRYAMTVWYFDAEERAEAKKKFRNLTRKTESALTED
Description: as §1, §2, §3

Compound | pIC50 (human HIF-PHD2) | pIC50 (human HIF-PHD3)
CC(C)C(c1cc(F)cc(F)c1)n1ncc2nc(-n3cc(C(=O)O)cn3)nc(O)c21 (single isomer, unassigned) [Example 361] | 7.21 | 6.12
CC(C)C(c1cccc(C(F)(F)F)c1)n1ncc2nc(-n3cc(C(=O)O)cn3)nc(O)c21 (single isomer, unassigned) [Example 363] | 7.24 | 5.89
O=C(O)c1cnn(-c2nc(O)c3c(cnn3C(c3ccc(F)cc3)C3CC3)n2)c1 (single isomer, unassigned) [Example 367] | 7.47 | 6.46
Cc1ccc(C(C2CC2)n2ncc3nc(-n4cc(C(=O)O)cn4)nc(O)c32)cc1 (single isomer, unassigned) [Example 369] | 7.46 | 6.40
O=C(O)c1cnn(-c2nc(O)c3c(cnn3C(c3ccc(F)c(Cl)c3)C3CC3)n2)c1 (single isomer, unassigned) [Example 371] | 7.39 | 6.40
O=C(O)c1cnn(-c2nc(O)c3c(cnn3C(c3cc(F)cc(F)c3)C3CC3)n2)c1 (single isomer, unassigned) [Example 373] | 7.44 | 6.19
O=C(O)c1cnn(-c2nc(O)c3c(cnn3C(c3cccc(Cl)c3)C3CC3)n2)c1 (single isomer, unassigned) [Example 375] | 7.28 | 6.30
Cc1cc(C(C2CC2)n2ncc3nc(-n4cc(C(=O)O)cn4)nc(O)c32)ccc1F (single isomer, unassigned) [Example 377] | 7.18 | 6.47
CC1CCCC(n2ncc3nc(-n4cc(C(=O)O)cn4)nc(O)c32)C1 (single isomer, unassigned) [Example 399] | 7.27 | 6.23
CC1CCCC(n2ncc3nc(-n4cc(C(=O)O)cn4)nc(O)c32)C1 (single isomer, unassigned) [Example 401] | 7.32 | 5.92
CC1CC(n2ncc3nc(-n4cc(C(=O)O)cn4)nc(O)c32)CC(C)(C)C1 (single isomer, unassigned) [Example 408] | 7.42 | 6.40
CC1CC(n2ncc3nc(-n4cc(C(=O)O)cn4)nc(O)c32)CC(C)(C)C1 (single isomer, unassigned) [Example 410] | 7.38 | 6.37
CC1(C)CCCC(n2ncc3nc(-n4cc(C(=O)O)cn4)nc(O)c32)C1 (single isomer, unassigned) [Example 412] | 7.37 | 6.23
CCC1CCCC(n2ncc3nc(-n4cc(C(=O)O)cn4)nc(O)c32)C1 (single isomer, unassigned) [Example 414] | 7.48 | 6.09
CC1(C)CCCC1n1ncc2nc(-n3cc(C(=O)O)cn3)nc(O)c21 (single isomer, unassigned) [Example 418] | 7.08 | 6.04
O=C(O)c1cnn(-c2nc(O)c3c(cnn3CC3CCN(Cc4ccc(F)cc4)CC3)n2)c1 [Example 2, 1-(1-{[1-(4-fluorobenzyl)piperidin-4-yl]methyl}-7-hydroxy-1H-pyrazolo[4,3-d]pyrimidin-5-yl)-1H-pyrazole-4-carboxylic acid hydrochloride] | 7.08 | 5.96
O=C(O)c1cnn(-c2nc(O)c3c(cnn3Cc3cccc4ccccc34)n2)c1 [Example 28] | 7.46 | 6.44
CC(C)c1ccccc1-c1ccc(Cn2ncc3nc(-n4cc(C(=O)O)cn4)nc(O)c32)cc1 [Example 59] | 7.54 | 7.02
O=C(O)c1cnn(-c2nc(O)c3c(cnn3Cc3ccc(-c4ccccc4C4CC4)cc3)n2)c1 [Example 60] | 7.55 | 7.11
O=C(O)c1cnn(-c2nc(O)c3c(cnn3Cc3ccc(-c4ccc(Cl)cc4Cl)cc3)n2)c1 [Example 72] | 7.55 | 6.55

Compound | pIC50 (human HIF-PHD2) | pIC50 (human HIF-PHD3)
O=C(O)c1cnn(-c2nc(O)c3c(cnn3Cc3ccc(-c4ccc(C(F)(F)F)cc4Cl)cc3)n2)c1 [Example 73] | 7.51 | 6.57
O=C(O)c1cnn(-c2nc(O)c3c(cnn3Cc3ccc(-c4ccc(F)cc4F)cc3F)n2)c1 [Example 82] | 7.49 | 6.89
CC(C)(Cn1ncc2nc(-n3cc(C(=O)O)cn3)nc(O)c21)c1ccc(Cl)c(Cl)c1 [Example 121] | 6.68 | 6.21
O=C(O)c1cnn(-c2nc(O)c3c(cnn3CC3(c4ccccc4)CCCC3)n2)c1 [Example 123] | 6.89 | 6.24
O=C(O)c1cnn(-c2nc(O)c3c(cnn3CC(F)(F)c3ccc(Cl)cc3)n2)c1 [Example 125] | 6.96 | 6.04
C[C@H](C1CCCCC1)n1ncc2nc(-n3cc(C(=O)O)cn3)nc(O)c21 [Example 145] | 7.52 | 5.77
O=C(O)c1cnn(-c2nc(O)c3c(cnn3CCCOc3ccc4c(c3)CCC4)n2)c1 [Example 195] | 7.66 | 6.34
O=C(O)c1cnn(-c2nc(O)c3c(n2)c(Cl)nn3CC2CCCC2)c1 [Example 221] | 7.36 | 6.17
CC(C)(C)[C@H]1CC[C@H](Cn2nc(Cl)c3nc(-n4cc(C(=O)O)cn4)nc(O)c32)CC1 [Example 225] | 7.66 | 6.82
Cc1nn(C2CCCCC2)c2c(O)nc(-n3cc(C(=O)O)cn3)nc12 [Example 227] | 6.89 | 5.42
Cc1nn(CC2CCCC2)c2c(O)nc(-n3cc(C(=O)O)cn3)nc12 [Example 229] | 7.30 | 5.55
CCc1nn(CC2CCCCC2)c2c(O)nc(-n3cc(C(=O)O)cn3)nc12 [Example 232] | 6.82 | 5.85
CC(C)c1nn(CC2CCCCC2)c2c(O)nc(-n3cc(C(=O)O)cn3)nc12 [Example 233] | 6.92 | 5.55
O=C(O)c1cnn(-c2nc(O)c3nn(CC4(COc5ccc6c(c5)CCCC6)CC4)cc3n2)c1 [Example 249] | 7.59 | 6.55
C[C@@H](c1ccc(F)c(Cl)c1)n1ncc2nc(-n3cc(C(=O)O)cn3)nc(O)c21 [Example 250] | 7.31 | 6.74
C[C@@H](c1ccc(F)c(F)c1)n1ncc2nc(-n3cc(C(=O)O)cn3)nc(O)c21 [Example 251] | 7.26 | 6.33
C[C@@H](c1ccc(F)cc1Cl)n1ncc2nc(-n3cc(C(=O)O)cn3)nc(O)c21 [Example 252] | 7.00 | 6.20
C[C@@H](c1cccc(Cl)c1)n1ncc2nc(-n3cc(C(=O)O)cn3)nc(O)c21 [Example 253] | 7.15 | 6.22
C[C@@H](c1cccc(F)c1)n1ncc2nc(-n3cc(C(=O)O)cn3)nc(O)c21 [Example 254] | 7.01 | 6.29
C[C@@H](c1ccc(F)cc1F)n1ncc2nc(-n3cc(C(=O)O)cn3)nc(O)c21 [Example 255] | 7.19 | 6.27

Stronger by pIC50 (human HIF-PHD2), values ahead:

pIC50 (human HIF-PHD2) | pIC50 (human HIF-PHD3) | Compound
7.92 | 6.34 | O=C(O)c1cnn(-c2nc(O)c3c(cnn3C(c3ccc(Cl)cc3)C3CC3)n2)c1 (single isomer, unassigned) [Example 365]
7.74 | 6.28 | CCC1CCCC(n2ncc3nc(-n4cc(C(=O)O)cn4)nc(O)c32)C1 (single isomer, unassigned) [Example 416]
8.00 | 6.70 | Cc1ccc2cc(Cn3ncc4nc(-n5cc(C(=O)O)cn5)nc(O)c43)ccc2c1 [Example 33]
7.80 | 6.96 | Cc1cc(Cl)ccc1-c1ccc(Cn2ncc3nc(-n4cc(C(=O)O)cn4)nc(O)c32)cc1 [Example 71]
7.70 | 7.14 | O=C(O)c1cnn(-c2nc(O)c3c(cnn3Cc3ccc(-c4ccc(Cl)cc4F)cc3)n2)c1 [Example 74]
7.70 | 6.92 | O=C(O)c1cnn(-c2nc(O)c3c(cnn3Cc3ccc(-c4cccc(Cl)c4Cl)cc3)n2)c1 [Example 75]
8.07 | 7.36 | Cc1cc(-c2ccccc2F)ccc1Cn1ncc2nc(-n3cc(C(=O)O)cn3)nc(O)c21 [Example 88]
7.70 | 7.44 | COc1cc(-c2ccccc2F)ccc1Cn1ncc2nc(-n3cc(C(=O)O)cn3)nc(O)c21 [Example 90]
7.96 | 7.30 | Cc1cc(Cn2ncc3nc(-n4cc(C(=O)O)cn4)nc(O)c32)ccc1-c1ccccc1 [Example 92]
7.80 | 7.05 | O=C(O)c1cnn(-c2nc(O)c3c(cnn3Cc3cc(F)c(-c4ccccc4F)cc3F)n2)c1 [Example 100]
7.74 | 6.66 | Cc1cc(Cn2ncc3nc(-n4cc(C(=O)O)cn4)nc(O)c32)c(F)cc1-c1ccccc1F [Example 103]
7.82 | 5.92 | O=C(O)c1cnn(-c2nc(O)c3c(cnn3CC3CCC(F)(F)CC3)n2)c1 [Example 143]
7.72 | 6.77 | Cc1cccc(OCCCn2ncc3nc(-n4cc(C(=O)O)cn4)nc(O)c32)c1C [Example 180]
8.00 | 6.44 | O=C(O)c1cnn(-c2nc(O)c3c(cnn3CCCOc3ccc(Cl)cc3)n2)c1 [Example 184]
7.82 | 6.48 | O=C(O)c1cnn(-c2nc(O)c3c(cnn3CCCOc3ccc(C4CCCCC4)cc3)n2)c1 [Example 185]
7.70 | 6.37 | COc1cccc(OCCCn2ncc3nc(-n4cc(C(=O)O)cn4)nc(O)c32)c1 [Example 186]
7.85 | 6.59 | Cc1c(OCCCn2ncc3nc(-n4cc(C(=O)O)cn4)nc(O)c32)ccc2c1CCCC2 [Example 190]
7.96 | 5.85 | CC[C@H]1CC[C@H](Cn2nc(F)c3nc(-n4cc(C(=O)O)cn4)nc(O)c32)CC1 [Example 219]
7.68 | 6.33 | Cc1nn(CCC2CCCCC2)c2c(O)nc(-n3cc(C(=O)O)cn3)nc12 [Example 231]
